Laboratory results published in US12559750B2, “Methods and compositions for treatment of polycystic kidney disease” (Regulus Therapeutics Inc., priority 2021, dated 2026).

Assays:
[1] = test system: C57Bl/6J male mice; assay: ICV maximum tolerated dose study, Study 1; type: in vivo, mouse; conditions: 7-day
Procedure: Compounds (RG-NG-1017, RGLS4326, RG-NG-1001) were evaluated in a pilot maximum tolerated dose (MTD) study (discussed below). RG-NG-1017, RGLS4326 and RG-NG-1001 were initially evaluated at 4 dose-levels each. RG-NG-1017 was included for evaluation as a non-AMPA-R binding compound, as compared to RGLS4326 and RG-NG-1001, which bind AMPA-R. C57Bl/6J male mice (Jackson Laboratories), age 6-7 weeks, were used in this study. Mice were assigned randomly to treatment groups, and the study was blinded. Animals were allowed to acclimate for no less than 5 days and housed on a 12 hr light/dark cycle (lights on 7:00 AM). No more than 4 mice were house in each cage in a ventilated cage rack system. The diet consisted of standard rodent chow and water ad libitum.
The following parameters were used for this study: • 1. Route(s) of administration: intracerebroventricular (ICV) dosing of RG-NG-1017, RG-NG-1001, RGLS4326 • 2. Dose Volume(s): 4 μL • 3. Formulation(s): vehicle, Ca^2+ and Mg^2+ free dPBS • 4. Dose Frequency: Once • 5. Study duration: 8 Days • 6. Number of Groups: 3 • 7. Number of animals per group: (2-4 each group) • 8. Total number of animals: […]
For the ICV administration, mice were anesthetized and positioned for injections. The skin over the skull was incised, and a small hole was made in the skull above the target using a microdrill. The stereotactic coordinates were anteroposterior (AP), −0.4 mm; mediolateral (ML), +/−1.0-1.5 mm; dorsoventral (DV), −3.0 mm from the bregma for injection into both the right and left lateral cerebral ventricles (Hironaka et al, 2015). Animals were injected unilaterally with 4 μl into the right lateral cerebral ventricle. Compounds were injected over 1-2 min, and the needle was left in place for 0.5-1 min prior to withdrawal. The incision was closed with sutures, wound clips, or VetBond.
Following ICV treatment (Day 0), animals were monitored for 7 days in which daily health checks, body weight, and mortality was recorded. On Day 7, brain and kidney were collected and fixed (10% formalin) and stored pending histology.

[2] = test system: Swiss:Rjorl male mice; assay: ICV maximum tolerated dose study for RGLS4326, Study 2; type: in vivo, mouse
Procedure: A second MTD study for RGL4326 by ICV was conducted to assess dose selection for evaluating the compound in disease models (Table 11). In this study, a different mouse strain was evaluated (Swiss:Rjorl male mice, age 5 weeks, sourced from Janvier). Mice were placed under isoflurane anaesthesia (5% for induction and 2% for maintenance, under 100% O2) and given 5 mg/kg s.c. carprofen (Rimadyl®). They were then placed in a stereotaxic frame. A midline sagittal incision was made in the scalp and a hole was drilled in the skull over the left lateral ventricle. A stainless-steel cannula (external diameter 0.51 mm) was placed stereotaxically into the left lateral ventricle at the following coordinates: +0.5 posterior to Bregma, L±0.7 mm, V=−2.7 mm. After a 2-minute delay to allow the brain tissue to slide over the cannula, 4 μL of a solution containing 0.625 mg/mL of RG4326 was slowly infused over 2 minutes. After infusion, the cannula was left in place for a further 5 minutes to prevent backflow of the solution along the cannula track. Mice were given 5 mg/kg s.c. carprofen (Rimadyl®) at 24 and 48 hours, after surgery. Mice were monitored during 3-7 days after surgery (starting 24 h after ICV administration) and their body weight was taken daily to check their health status. For mice monitored over 7 days, body weight was taken on Day 1 and on Day 7 after surgery to check their health status.
In Study 1, 6 mice were injected with 4 μL of a solution at 0.625 mg/mL (2.5 μg total per ICV; Table 10). At the end of anesthesia, the mice remained lying on one side. They were quiet with some periods of scratching during the first hours after surgery. […] In Study 2, four mice were injected with 4 different doses of RGLS4326 (0.75, 1.0, 1.25 and 1.875 mg/mL, volume of 4 μL). One mouse that received the highest dose (1.875 mg/mL, i.e., 7.5 μg/mouse) was found dead around 24 hours after ICV injection. All other mice were in good health, until the end of the pilot study (7 days after administration).

“ASGSCMAFCFUFUMUSGS [RGLS4326, reference compound]” was tested, and the “Mortality/total number of mice” value ([1]; single ICV 2.5 μg) was 0/3, the “Mortality/total number of mice” value ([1]; single ICV 5 μg) was 2/4 and the “Mortality/total number of mice” value ([1]; single ICV 10 μg) was 3/4. For the same sequence, the “Mortality/total number of mice” value ([1]; single ICV 25 μg) was 3/3, the “Mortality/total number of mice” value ([1]; single ICV 50 μg) was 3/3 and the “Mortality/total number of mice” value ([1]; single ICV 100 μg) was 2/2. For the same sequence, the “Mortality/total number of mice” value ([1]; single ICV 300 μg) was 2/2, the “Mortality/total number of mice” value ([1]; single ICV 600 μg) was 2/2 and the “toxic effects at 24, 48 or 72 hours” value ([2]; ICV 4 μL of 0.625 mg/mL (2.5 μg total), 6 mice) was “No toxic effects were observed”. The “Dead/Total Mice, Study 2” value ([2]; single ICV 2.5 μg) was 0/6, the “Dead/Total Mice, Study 2” value ([2]; single ICV 3 μg, 7-day) was 0/4 and the “Dead/Total Mice, Study 2” value ([2]; single ICV 4 μg, 7-day) was 0/4. The “Dead/Total Mice, Study 2” value ([2]; single ICV 5 μg, 7-day) was 0/4, the “Dead/Total Mice, Study 2” value ([2]; single ICV 7.5 μg, 7-day) was 1/4 and the MTD ([2]; single ICV, Swiss:Rjorl mouse strain, predicted from Study 2) was ~4 µg.
